In patent US8987276B2, “Substituted triazolyl piperazine and triazolyl piperidine derivatives as gamma secretase modulators” (Janssen Pharmaceuticals, Inc., priority 2011, dated 2015) one finds IC50 and melting point data, which are given here for 10 compounds.

One data set concerns Aβ42. Nature of the data set: Screening for γ-secretase-modulating activity: Aβ42 in supernatant of SKNBE2 cells carrying APP 695-wild type (Alphalisa). In kind it is cell-based. Particulars: Homo sapiens, overnight incubation, cell supernatant. The procedure:
(§1) Screening was carried out using SKNBE2 cells carrying the APP 695-wild type, grown in Dulbecco's Modified Eagle's Medium/Nutrient mixture F-12 (DMEM/NUT-mix F-12) (HAM) provided by Invitrogen (cat no. 10371-029) containing 5% Serum/Fe supplemented with 1% non-essential amino acids, 1-glutamine 2 mM, Hepes 15 mM, penicillin 50 U/ml (units/ml) en streptomycin 50 µg/ml. Cells were grown to near confluency.
(§2) The screening was performed using a modification of the assay as described in Citron et al (1997) Nature Medicine 3: 67. Briefly, cells were plated in a 384-well plate at 10^4 cells/well in Ultraculture (Lonza, BE12-725F) supplemented with 1% glutamine (Invitrogen, 25030-024), 1% non-essential amino acid (NEAA), penicillin 50 U/ml en streptomycin […] in the presence of test compound at different test concentrations. The cell/compound mixture was incubated overnight at 37° C., 5% CO2. The next day the media were assayed by two sandwich immuno-assays, for Aβ42 and Aβtotal.
(§3) Aβtotal and Aβ42 concentrations were quantified in the cell supernatant using the Aphalisa technology (Perkin Elmer). Alphalisa is a sandwich assay using biotinylated antibody attached to streptavidin coated donorbeads and antibody conjugated to acceptor beads. In the presence of antigen, the beads come into close proximity. The excitation of the donor beads provokes the release of singlet oxygen molecules that trigger a cascade of energy transfer in the acceptor beads, resulting in light emission.
(§4) To quantify the amount of Aβ42 in the cell supernatant, monoclonal antibody specific to the C-terminus of Aβ42 (JRF/cAB42/26) was coupled to the receptor beads and biotinylated antibody specific to the N-terminus of Aβ (JRF/ABN/25) was used to react with the donor beads. T quantify the amount of Aβtotal in the cell supernatant, monoclonal antibody specifc to the N-terminus of Aβ (JRF/AβN/25) was coupled to the receptor beads and biotinylated antibody specific to the mid region of Aβ (biotinylated 4G8) was used to react with the donor beads.
(§5) To obtain the values reported in Table 3, the data are calculated as percentage of the maximum amount of amyloid Beta 42 measured in the absence of the test compound. The sigmoidal dose response curves were analyzed using non-linear regression analysis with percentage of the control plotted against the log concentration of the compound. A 4-parameter equation was used to determine the IC50.
Background: In Alpha technology, singlet oxygen from a donor bead excites a nearby acceptor bead.

The test system of another data set is Aβtotal. The data set is described as follows: Screening for γ-secretase-modulating activity: Aβtotal in supernatant of SKNBE2 cells carrying APP 695-wild type (Alphalisa). In kind it is cell-based. Particulars: Homo sapiens, overnight incubation, cell supernatant. The method, then: as §1, §2, §3, §4, §5

pIC50: −log10 of the molar value. Counter-ions that a name gives are not always drawn.

For the compound `COc1ccc(N2CCN(c3nc(Nc4ccccc4C(F)(F)F)n(C)n3)CC2(C)C)cc1` [Compound 2, 3-[4-(4-methoxyphenyl)-3,3-dimethyl-1-piperazinyl]-1-methyl-N-[2-(trifluoromethyl)phenyl]-1H-1,2,4-triazol-5-amine], the pIC50 is 7.05 in the data set on Aβ42 and less than 5.00 in the data set on Aβtotal.

Turning to `COc1ccc(N2CCN(c3nc(Nc4cccc(F)c4C(F)(F)F)n(C)n3)CC2(C)C)cc1` [Compound 3, N-[3-fluoro-2-(trifluoromethyl)phenyl]-3-[4-(4-methoxyphenyl)-3,3-dimethyl-1-piperazinyl]-1-methyl-1H-1,2,4-triazol-5-amine], the pIC50 with Aβ42 was 7.30; in the data set on Aβtotal, less than 5.00.

Take `COc1ccc(N2CCN(c3nc(Nc4cccc(OC(F)(F)F)c4)n(C)n3)CC2(C)C)cc1` [Compound 4, 3-[4-(4-methoxyphenyl)-3,3-dimethyl-1-piperazinyl]-1-methyl-N-[3-(trifluoromethoxy)phenyl]-1H-1,2,4-triazol-5-amine.HCl]: the pIC50 is 7.15 with Aβ42 and less than 5.00 in the data set on Aβtotal.

On to `COc1ccc(N2CCN(c3nc(Nc4cc(F)cc(C(F)(F)F)c4)n(C)n3)CC2(C)C)cc1` [Compound 5, N-[3-fluoro-5-(trifluoromethyl)phenyl]-3-[4-(4-methoxyphenyl)-3,3-dimethyl-1-piperazinyl]-1-methyl-1H-1,2,4-triazol-5-amine.0.8HCl], for which the values for the pIC50 in the data set with Aβ42 and with Aβtotal were 6.85 and less than 5.00, respectively.

With `Cn1nc(N2CCC(Oc3ccncc3)CC2)nc1Nc1cc(C(F)(F)F)ccc1F` [Compound 7, N-[2-fluoro-5-(trifluoromethyl)phenyl]-1-methyl-3-[4-(4-pyridinyloxy)-1-piperidinyl]-1H-1,2,4-triazol-5-amine], the pIC50 in the data set with Aβ42 is 6.14; in the data set with Aβtotal, less than 5.00.

`Cc1cc(OC2CCN(c3nc(Nc4cc(C(F)(F)F)ccc4F)n(C)n3)CC2)ncn1` [Compound 8, N-[2-fluoro-5-(trifluoromethyl)phenyl]-1-methyl-3-[4-[(6-methyl-4-pyrimidinyl)oxy]-1-piperidinyl]-1H-1,2,4-triazol-5-amine] showed a melting point of 158 °C. This compound gave a pIC50 with Aβ42 of 6.02. This compound also gave a negative logarithm of the IC50 (pIC50) in the data set with Aβtotal of less than 5.00.

`COc1ccc(N2CCN(c3nc(Nc4cc(C(F)(F)F)ccc4F)n(C)n3)CC2)cc1` [Compound 9, N-[2-fluoro-5-(trifluoromethyl)phenyl]-3-[4-(4-methoxyphenyl)-1-piperazinyl]-1-methyl-1H-1,2,4-triazol-5-amine]: the melting point was 145.4 °C. Besides, the pIC50 in the data set with Aβ42 was 6.25. The compound further had a pIC50 with Aβtotal of less than 5.00.

On to `Cn1nc(N2CCN(c3ccncc3)CC2)nc1Nc1cc(C(F)(F)F)ccc1F` [Compound 10, N-[2-fluoro-5-(trifluoromethyl)phenyl]-1-methyl-3-[4-(4-pyridinyl)-1-piperazinyl]-1H-1,2,4-triazol-5-amine], for which the melting point amounted to 261.8 °C. Besides, the pIC50 in the data set with Aβ42 is 5.31. Also, the pIC50 with Aβtotal is less than 5.00.

Regarding `Cc1cc(CC2CCN(c3nc(Nc4cc(C(F)(F)F)ccc4F)n(C)n3)CC2)ccn1` [Compound 11, N-[2-fluoro-5-(trifluoromethyl)phenyl]-1-methyl-3-[4-[(2-methyl-4-pyridinyl)methyl]-1-piperidinyl]-1H-1,2,4-triazol-5-amine.HCl.H2O], the results for the pIC50 in the data set with Aβ42 and with Aβtotal were 5.16 and less than 5.00, respectively.

In the case of `Cn1nc(N2CCN(Cc3ccncc3)CC2)nc1Nc1cc(C(F)(F)F)ccc1F` [Compound 12, N-[2-fluoro-5-(trifluoromethyl)phenyl]-1-methyl-3-[4-(4-pyridinylmethyl)-1-piperazinyl]-1H-1,2,4-triazol-5-amine], the melting point came out at 161.4 °C. The compound further showed a pIC50 with Aβ42 of less than 5.00. Moreover, the pIC50 in the data set with Aβtotal was less than 5.00.

For orientation: pIC50 means the negative decadic logarithm of the IC50, by convention in mol/L. A low value points to a high IC50. A word on the melting point: it is the temperature, or range, at which the solid turns liquid.
